# Read-outs that look alike come from different tables or passages of the source. Where a SMILES comes first, the peptide text is derived from it. Bridges are numbered along the chain shown (N, C = ends). [ ]: non-standard residue; d: D form. The star is where a group is joined. ξ: configuration not given here. Phe(4-CH2CH2COOH) = N[C@@H](Cc1ccc(CCC(=O)O)cc1)C(=O)O; Phe(4-COOH) = N[C@@H](Cc1ccc(C(=O)O)cc1)C(=O)O; Bip = N[C@@H](Cc1ccc(-c2ccccc2)cc1)C(=O)O; Phe(3-Me) = Cc1cccc(C[C@H](N)C(=O)O)c1; Val(3-OH) = CC(C)(O)[C@H](N)C(=O)O; hArg = N=C(N)NCCCC[C@H](N)C(=O)O; 4Pal = N[C@@H](Cc1ccncc1)C(=O)O; Cha = N[C@@H](CC1CCCCC1)C(=O)O; Thr(3ξ) = CC(O)[C@H](N)C(=O)O; 12Ado = NCCCCCCCCCCCC(=O)O; Carboxymethyl = O=C(O)C*; NMeA = CN[C@@H](C)C(=O)O; Orn = NCCC[C@H](N)C(=O)O; Aun = NCCCCCCCCCCC(=O)O; Dab = NCC[C@H](N)C(=O)O; Dap = NC[C@H](N)C(=O)O; AEEA = NCCOCCOCC(=O)O
# Target: T1, PD-1/PD-L1 interaction (PE-labeled human PD-L1-Ig binding to Jurkat cell line over-expressing human PD-1) (Homo sapiens, UniProt Q15116)
# T1 construct: expressed in transfected cells; host or cells: Jurkat
# T1 sequence (Q15116 25-288): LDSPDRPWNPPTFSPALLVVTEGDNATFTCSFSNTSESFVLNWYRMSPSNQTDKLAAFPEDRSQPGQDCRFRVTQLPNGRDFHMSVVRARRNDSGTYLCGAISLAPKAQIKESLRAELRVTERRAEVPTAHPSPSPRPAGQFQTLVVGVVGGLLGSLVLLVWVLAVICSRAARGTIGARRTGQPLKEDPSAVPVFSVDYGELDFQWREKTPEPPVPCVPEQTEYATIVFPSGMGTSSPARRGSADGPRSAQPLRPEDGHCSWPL
# Assay: Jurkat-PD-1 Cell Binding High-Content Screening Assay (CBA)
# In short: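 Jurkat cells overexpressing human PD-1 (8×10^3/well, DMEM + 10% FCS) preincubated with compound 2 h at 37 °C, then PE-labelled human PD-L1-Ig (20 nM final) for 1 h. Cells fixed in paraformaldehyde with Hoechst 33342; bound PD-L1 quantified by high-content imaging.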
# [1] = Jurkat-hPD-1 cells, PE-labeled PD-L1-Ig 20 nM final; read-out: Jurkat HPD1 PDL1 IC50
Compound,"IC50 (PE-labeled PD-L1-Ig 20 nM final, Jurkat-hPD-1 cells; read-out: Jurkat HPD1 PDL1 IC50)",IC50 [1]
Cc1cccc(C[C@@H]2NC(=O)[C@H](CC(=O)O)NC(=O)[C@H](Cc3ccc(OCC(=O)O)cc3)NC(=O)[C@H]([C@@H](C)O)NC(=O)CSC[C@@H](C(=O)N[C@@H](CCN)C(=O)NCCOCCOCC(=O)NCCCCCCCCCCCC(=O)O)NC(=O)[C@H](CCC(=O)O)NC(=O)[C@H](C(C)C)NC(=O)[C@H](CC3CCCCC3)NC(=O)[C@H](CCN)NC(=O)[C@@H](CC(C)C)NC(=O)[C@H](C)N(C)C(=O)[C@H](Cc3ccc(OCC(=O)O)cc3)NC(=O)[C@H](Cc3ccc(-c4ccccc4)cc3)NC(=O)[C@H](Cc3ccc(O)cc3)NC2=O)c1 [Example 2666] ({CH2CO}-TY(Carboxymethyl)D[Phe(3-Me)]Y[Bip]Y(Carboxymethyl)[NMeA][dL][Dab][Cha]VEC[Dab][AEEA][12Ado]-OH; thioether N-14),0.7 nM,
Cc1cccc(C[C@@H]2NC(=O)[C@H](CC(=O)O)NC(=O)[C@H](Cc3ccc(OCC(=O)O)cc3)NC(=O)[C@H](CN)NC(=O)CSC[C@@H](C(=O)N[C@@H](CCN)C(=O)NCCCCCCCCCCC(=O)O)NC(=O)[C@H]([C@@H](C)O)NC(=O)[C@H](C(C)C)NC(=O)[C@H](CC3CCCCC3)NC(=O)[C@H](CCN)NC(=O)[C@@H](CC(C)C)NC(=O)[C@H](C)N(C)C(=O)[C@H](Cc3ccc(OCC(=O)O)cc3)NC(=O)[C@H](Cc3ccc(-c4ccccc4)cc3)NC(=O)[C@H](Cc3ccc(CCC(=O)O)cc3)NC2=O)c1 [Example 1262] ({CH2CO}-[Dap]Y(Carboxymethyl)D[Phe(3-Me)][Phe(4-CH2CH2COOH)][Bip]Y(Carboxymethyl)[NMeA][dL][Dab][Cha]VTC[Dab][Aun]-OH; thioether N-14),,8.9 nM
CC(C)C[C@@H]1NC(=O)[C@H](Cc2c[nH]c3ccccc23)NC(=O)[C@H](CC(=O)O)NC(=O)[C@H](Cc2ccc(OCC(=O)O)cc2)NC(=O)[C@H](CCCCNC(=N)N)NC(=O)CSC[C@@H](C(=O)NCC(=O)N[C@@H](CCCN)C(=O)NCCCCCCCCCCCC(=O)O)NC(=O)[C@H](CO)NC(=O)[C@H](C(C)C)NC(=O)[C@H](CC2CCCCC2)NC(=O)[C@H](CCN)NC(=O)[C@@H](CC(C)C)NC(=O)[C@H](C)N(C)C(=O)[C@H](C(C)C)NC(=O)[C@H](Cc2ccc(-c3ccccc3)cc2)NC1=O [Example 2121] ({CH2CO}-[hArg]Y(Carboxymethyl)DWL[Bip]V[NMeA][dL][Dab][Cha]VSCG[Orn][12Ado]-OH; thioether N-14),,19.4 nM
CC(C)C[C@H]1NC(=O)[C@H](C)N(C)C(=O)[C@H](CCC(=O)O)NC(=O)[C@H](Cc2ccc(-c3ccccc3)cc2)NC(=O)[C@H](C(C)C)NC(=O)[C@H](Cc2c[nH]c3ccccc23)NC(=O)[C@H](CC(=O)O)NC(=O)[C@H](Cc2ccc(C(=O)O)cc2)NC(=O)[C@H](Cc2ccc(OCC(=O)O)cc2)NC(=O)CSC[C@@H](C(=O)N[C@@H](CCCCN)C(=O)NCCOCCOCC(=O)NCCCCCCCCCCC(=O)O)NC(=O)[C@H](C(C)O)NC(=O)[C@H](C(C)C)NC(=O)[C@H](CC2CCCCC2)NC(=O)[C@H](CCN)NC1=O (stereo partly drawn) [Example 2108] ({CH2CO}-Y(Carboxymethyl)[Phe(4-COOH)]DWV[Bip]E[NMeA][dL][Dab][Cha]V[Thr(3ξ)]CK[AEEA][Aun]-OH; thioether N-14),,24.4 nM
Cc1cccc(C[C@@H]2NC(=O)[C@H](CC(=O)O)NC(=O)[C@H](Cc3ccc(OCC(=O)O)cc3)NC(=O)[C@H](Cc3ccncc3)NC(=O)CSC[C@@H](C(=O)N[C@@H](CCN)C(=O)NCCOCCOCC(=O)NCCCCCCCCCCC(=O)O)NC(=O)[C@H](CCC(=O)O)NC(=O)[C@H](C(C)(C)O)NC(=O)[C@H](CC3CCCCC3)NC(=O)[C@H](CCN)NC(=O)[C@@H](CC(C)C)NC(=O)[C@H](C)N(C)C(=O)[C@H](Cc3ccc(OCC(=O)O)cc3)NC(=O)[C@H](Cc3ccc(-c4ccccc4)cc3)NC(=O)[C@H](Cc3ccc(OCC(=O)O)cc3)NC2=O)c1 [Example 1425] ({CH2CO}-[4Pal]Y(Carboxymethyl)D[Phe(3-Me)]Y(Carboxymethyl)[Bip]Y(Carboxymethyl)[NMeA][dL][Dab][Cha][Val(3-OH)]EC[Dab][AEEA][Aun]-OH; thioether N-14),,157 nM

# From patent US20260070945A1, “MACROCYCLIC IMMUNOMODULATORS” (Bristol-Myers Squibb Company, priority 2022, published 2026)
